# Experiment: in vitro
# Type: cell-based
# Details: human, huh-7.5 cells
# Protocol: Luciferase assays are performed at about 48 hr to about 72 hr or 96 hr.
# After a 5-30 min recovery at about 25° C., pulsed cells are diluted into 2-25 ml of prewarmed growth medium. […] Untreated cells are used as a negative control for water soluble compounds. […] Medium is changed daily.
# Following about 48, about 72, or about 96 hrs of treatment, cells are incubated for 1-5 hrs at about 37° C. in the presence of 1-20% Alamar Blue reagent (TREK Diagnostic Systems).
smiles,measurement,value
Cc1ccc(Cn2ncc3ccccc32)cc1 [Compound 185],viability at 5 µM,≥ 90%
same,viability at 10 µM,≥ 90%

# From US20150152064A1, “METHODS AND COMPOSITIONS OF TREATING A FLAVIVIRIDAE FAMILY VIRAL INFECTION” (The Board of Trustees of the Leland Stanford Junior …, priority 2007, published 2015)
